The values below come from article PMC12648288, “Drastic Impact of Donor Substituents on Xanthenes in the PDT of Glioblastoma” (JACS Au, 2025).

One test has as its system U118MG cells. As to the kind of experiment: Lipid peroxidation (TBARS). In kind it is cell-based, human. Conditions: IC50 concentration, PDT, up to 24 h postirradiation, % of untreated control. As to the method:
(§1) Further analysis was conducted to elucidate mitochondrial- or lysosomal-localization-dependent cell death mechanisms. For this purpose, lipid peroxidation, a major end product of ROS-mediated cellular damage, was assessed. […] Moreover, the pronounced rise in lipid peroxidation was predominantly evident during the 24 h resting stage rather than immediately after light exposure, as observed with NSeAze. The apparent increase in lipid peroxidation explains the damage to the membranous structures of cells, such as mitochondria, lysosomes, and plasma membranes (Figure a,b). This was further confirmed by the detection of free unsaturated lipid content of cells, which is released upon disruption of the membranous structures.
(§2) Determination of lipid peroxidation
(§3) The effect of NSeMorph and NSeAze on lipid peroxidation was investigated using thiobarbituric acid reactive substances (TBARS) method,1 which is based on measuring malondialdehyde (MDA) levels, the end-product of lipid peroxidation. For this purpose, cells were seeded in 6-well plates at a density of 1 × 10^6 cells/well and incubated overnight. Afterwards, both compounds were administered in IC50 values according to the above-mentioned PDT protocol. The resulting lipid peroxidation was measured following the immediate irradiation and after 24 h of resting stage. After the indicated time periods, cells were harvested and lysed with a RIPA cell lysis buffer (Merck, Germany). The lysates were then prepared according to the TBARS assay protocol. Briefly, the samples were mixed with 0.8% thiobarbituric acid prepared in 20% trichloroacetic acid solution and then incubated for 2 h at 95 °C. Absorbance of the resulting pink-to-red color was measured at 532 nm with a spectrophotometer (Thermo, Germany). Data were expressed as % compared to untreated control group and normalized to cell viability rates (n=6). […]

The next test concerns U87MG cells. As to the kind of experiment: Lipid peroxidation (TBARS). Format: cell-based, human. Conditions: IC50 concentration, PDT, up to 24 h postirradiation, % of untreated control. As to the method:
as §1, §2, §3

Test [1] deals with U118MG glioblastoma cells. As to the kind of experiment: MTT cell viability, dark and PDT. Format: cell-based, human. As to the method:
(§4) The time- and concentration-dependent effects of NSeAze and NSeMorph on glioblastoma cells were determined by using the MTT assay (Figure S7). In this regard, U118MG and U87MG cells were administered with NSeMorph (0.5–20 μM) and NSeAze (0.01–2.5 μM) for 24 h to evaluate their dark toxicity. Before PDT application, both cell lines were treated as indicated for 1 h and then exposed to 660 nm LED light for 2 and 1 h, respectively (Figure ). Following overnight incubation, the resulting cell viability was calculated and compared to the effect of both compounds in the absence of irradiation. […]
(§5) Cell Culture and Treatment
(§6) Human glioblastoma cell lines (U118MG and U87MG) and healthy mouse fibroblast cells (L929) were cultured in DMEM high glucose medium supplemented with 10% fetal bovine serum (FBS), 2 mM glutamine, 1% penicillin/stremptomycin, 0.5% amphotericin B, and incubated at 37 °C with 5% CO2. NSeMorph and NSeAze were dissolved in cell culture-grade DMSO and further diluted in complete medium for experimental use. For phototoxicity analysis, cells were administered with NSeMorph […]
(§7) mW/cm2) irradiation for 2 h in NSeMorph-treated groups and 1 h in NSeAze-treated groups. Then, each group were incubated for further 24 h in the dark to allow for resting. On the other hand, the dark toxicity of both agents was detected following the same treatment under identical conditions without LED irradiation. To determine the involvement of distinct ROS types, cells were pretreated for 1 h with selective […]
(§8) scavengers prior to photosensitizer exposure. The scavengers included NAC (5 mM), NaN3 (5 mM), histidine (5 mM), Tiron (100 µM), mannitol (25 mM) and Trolox (25 µM).
(§9) Cell viability was then assessed following irradiation. For index calculations, all cells were treated with the increasing concentrations (0.5-500 µM) of NSeMorph and NSeAze for 24 h. Final DMSO concentrations were kept below 0.5% (v/v) in all […]
(§10) PI=IC50, dark /IC50, light
(§11) SI= IC50, light, healthy cells/IC50, light, cancer cells
(§12) TI= IC50, dark, healthy cells/IC50, light, cancer cells
(§13) The viability of cells treated with NSeMorph and NSeAze was determined with MTT (3-[4,5-dimethylthiazol-2-yl]-2,5-diphenyltetrazoliumbromide) assay. Following the administration of both compounds, the medium was discarded and cells were treated with fresh media containing MTT (0.5 mg/ml) for 2-4 h at 37 °C. Formazan crystals were then solubilized in 10% SDS in 0.01 N HCl, and absorbance was measured at 490 and 570 nm wavelength using microplate reader (Multiskan Sky, Thermo Scientific). Data were normalized to vehicle (DMSO)-treated controls. IC50 values were calculated using nonlinear regression analysis in GraphPad Prism 9.02 (GraphPad Software Inc.). All experiments were performed in technical and biological replicates

The subject of another test is U87MG glioblastoma cells. As to the kind of experiment: MTT cell viability, dark and PDT. In kind it is cell-based, human. As to the method: as §4, §5, §6, §7, §8, §9, §10, §11, §12, §13
For test [2], the system named is L929 healthy fibroblast cells. As to the kind of experiment: MTT cell viability, dark and PDT. In kind it is cell-based. Conditions: Mus musculus. The method, then:
as §4, §5, §6, §7, §8, §9, §10, §11, §12, §13

The mark [3] stands for this setting: Homo sapiens, U-118-MG, 1 h incubation, 660 nm LED 2 h (NSeMorph) or 1 h (NSeAze), read-out: IC50 (light).
Where [4] appears, read: Homo sapiens, U-118-MG, 24 h, dark, 24 h, read-out: IC50 (dark).
The mark [5] stands for this setting: Homo sapiens, U-87 MG, 1 h incubation, 660 nm LED 2 h (NSeMorph) or 1 h (NSeAze), read-out: IC50 (light).
Setting [6] is: Homo sapiens, U-87 MG, 24 h, dark, 24 h, read-out: IC50 (dark).
The mark [7] stands for this setting: L929, 1 h incubation, 660 nm LED 2 h (NSeMorph) or 1 h (NSeAze), read-out: IC50 (light).
[8] abbreviates: L929, dark, 24 h, read-out: IC50 (dark).
The mark [9] stands for this setting: 1 h incubation, 660 nm LED 2 h (NSeMorph) or 1 h (NSeAze), read-out: IC50 (light).

Where two headings read alike, the source gives them in different places.

As a reminder, the IC50 is the concentration that gives 50% inhibition.

In the case of `c1cc2nc3ccc(=[N+]4CCC4)cc-3[se]c2cc1N1CCC1` [NSeAze], the values for the Lipid peroxidation in the test with U118MG cells and in the test on U87MG cells were 245.24 ± 5.92% and 309.64 ± 13.20%, respectively. The IC50 in test [1] (Homo sapiens, U-118-MG, 1 h, 660 nm LED 1 h, read-out: IC50 (light)) is 0.461 µM; in test [1] (setting [3]), 0.46 ± 0.02 µM; in test [1] (setting [4]) it was 60.4 ± 2.6 µM; with U87MG glioblastoma cells (Homo sapiens, U-87 MG, 1 h, 660 nm LED 1 h, read-out: IC50 (light)), 0.456 µM; in the test on U87MG glioblastoma cells (setting [5]), 0.38 µM; in the test with U87MG glioblastoma cells (setting [6]) it was 65.8 ± 2.51 µM. Moreover, the IC50 in the test with U87MG glioblastoma cells (dark, 24 h, read-out: IC50 (dark)) was 65.9 ± 2.5 µM; in test [2] (setting [7]) it was under 1 µM; in test [2] (setting [8]), 129 ± 5.1 µM.

`c1cc2nc3ccc(=[N+]4CCOCC4)cc-3[se]c2cc1N1CCOCC1` [NSeMorph]: the Lipid peroxidation turned out to be 244.22 ± 2.38% in the test on U118MG cells and 216.73 ± 3.98% in the test on U87MG cells. The IC50 was 8.02 ± 0.34 µM in test [1] (setting [9]); 8 µM in test [1] (setting [3]); 375 ± 17.4 µM in test [1] (setting [4]); 15.8 ± 0.84 µM in the test with U87MG glioblastoma cells (setting [9]); 15.8 µM in the test with U87MG glioblastoma cells (setting [5]); over 500 µM in the test with U87MG glioblastoma cells (setting [6]). The IC50 was over 20 µM in test [2] (setting [7]) and over 500 µM in test [2] (setting [8]).
